Drawing on ChEMBL document CHEMBL5465560, “Selectivity Literature for EUbOPEN Chemogenomic Library” (2024), this text covers % of control and % of inhibition for 5 compounds.

Assay [1] has as its target Serine/threonine-protein kinase PAK 6 (Homo sapiens) (UniProt Q9NQU5). Nature of the assay: Selectivity interaction (ProQinase) EUB0000171b PAK6. The following applies: at 1 µM.
Assay [2] addresses T1, NUAK family SNF1-like kinase 2 (Homo sapiens) (UniProt Q9H093).
T1 sequence (whole entry): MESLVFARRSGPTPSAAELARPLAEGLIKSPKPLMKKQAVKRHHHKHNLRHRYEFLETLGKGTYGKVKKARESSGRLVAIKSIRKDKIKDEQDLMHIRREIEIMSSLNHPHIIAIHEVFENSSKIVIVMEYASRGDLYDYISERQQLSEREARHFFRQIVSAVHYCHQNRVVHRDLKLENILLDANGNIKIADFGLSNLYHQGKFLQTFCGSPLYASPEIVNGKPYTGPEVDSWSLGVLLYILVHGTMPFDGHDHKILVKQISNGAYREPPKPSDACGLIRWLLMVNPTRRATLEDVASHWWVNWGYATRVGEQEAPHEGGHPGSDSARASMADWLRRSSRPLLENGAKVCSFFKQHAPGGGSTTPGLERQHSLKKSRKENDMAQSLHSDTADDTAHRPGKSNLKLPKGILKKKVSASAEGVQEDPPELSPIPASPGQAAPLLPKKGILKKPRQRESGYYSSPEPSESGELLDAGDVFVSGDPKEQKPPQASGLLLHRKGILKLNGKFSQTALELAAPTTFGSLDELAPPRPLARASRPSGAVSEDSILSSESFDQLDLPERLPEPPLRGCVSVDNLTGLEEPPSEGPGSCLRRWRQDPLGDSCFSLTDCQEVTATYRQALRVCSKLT
Description: Selectivity interaction (ProQinase) EUB0000171b NUAK2.

In assay [3] the target is Serine/threonine-protein kinase PRP4 homolog (Homo sapiens) (UniProt Q13523). Description: Selectivity interaction (KinomeScan (DiscoverX)) EUB0001049a PRPF4B. As to conditions: at 1 µM.
Serine/threonine-protein kinase PRP4 homolog (Homo sapiens), sequence (Q13523 whole entry): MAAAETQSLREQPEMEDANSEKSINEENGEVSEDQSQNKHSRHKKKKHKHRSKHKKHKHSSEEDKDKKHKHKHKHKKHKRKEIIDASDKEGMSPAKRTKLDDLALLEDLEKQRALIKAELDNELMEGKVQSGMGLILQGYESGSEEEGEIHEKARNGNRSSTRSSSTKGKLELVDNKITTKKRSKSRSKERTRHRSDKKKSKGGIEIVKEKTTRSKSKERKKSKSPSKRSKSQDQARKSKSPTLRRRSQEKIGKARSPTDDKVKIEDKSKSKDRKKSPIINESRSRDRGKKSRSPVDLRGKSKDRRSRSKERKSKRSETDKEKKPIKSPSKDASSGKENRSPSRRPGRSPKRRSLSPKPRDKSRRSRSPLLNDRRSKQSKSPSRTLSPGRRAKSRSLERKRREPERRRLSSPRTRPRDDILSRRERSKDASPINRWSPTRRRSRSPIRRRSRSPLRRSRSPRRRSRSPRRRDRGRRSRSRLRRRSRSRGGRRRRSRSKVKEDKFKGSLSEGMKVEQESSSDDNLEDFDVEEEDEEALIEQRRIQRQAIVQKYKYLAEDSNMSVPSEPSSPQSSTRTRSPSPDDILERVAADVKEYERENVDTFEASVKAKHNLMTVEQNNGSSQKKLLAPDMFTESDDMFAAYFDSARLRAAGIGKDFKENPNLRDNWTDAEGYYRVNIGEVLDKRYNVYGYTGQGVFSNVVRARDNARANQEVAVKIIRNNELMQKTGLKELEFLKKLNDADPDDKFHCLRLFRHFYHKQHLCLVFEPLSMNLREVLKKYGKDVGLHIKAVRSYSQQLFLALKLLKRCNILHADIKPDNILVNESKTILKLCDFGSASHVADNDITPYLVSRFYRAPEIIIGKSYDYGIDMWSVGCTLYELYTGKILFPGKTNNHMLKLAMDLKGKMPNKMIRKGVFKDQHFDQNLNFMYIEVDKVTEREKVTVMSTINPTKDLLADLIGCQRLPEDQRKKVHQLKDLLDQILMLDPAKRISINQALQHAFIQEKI
For assay [4], the target named is Platelet-derived growth factor receptor alpha (Homo sapiens, UniProt P16234). Description: Selectivity interaction (KinomeScan (DiscoverX)) EUB0000607a PDGFRA. As to conditions: at 10 µM.
Platelet-derived growth factor receptor alpha, sequence (P16234 whole entry): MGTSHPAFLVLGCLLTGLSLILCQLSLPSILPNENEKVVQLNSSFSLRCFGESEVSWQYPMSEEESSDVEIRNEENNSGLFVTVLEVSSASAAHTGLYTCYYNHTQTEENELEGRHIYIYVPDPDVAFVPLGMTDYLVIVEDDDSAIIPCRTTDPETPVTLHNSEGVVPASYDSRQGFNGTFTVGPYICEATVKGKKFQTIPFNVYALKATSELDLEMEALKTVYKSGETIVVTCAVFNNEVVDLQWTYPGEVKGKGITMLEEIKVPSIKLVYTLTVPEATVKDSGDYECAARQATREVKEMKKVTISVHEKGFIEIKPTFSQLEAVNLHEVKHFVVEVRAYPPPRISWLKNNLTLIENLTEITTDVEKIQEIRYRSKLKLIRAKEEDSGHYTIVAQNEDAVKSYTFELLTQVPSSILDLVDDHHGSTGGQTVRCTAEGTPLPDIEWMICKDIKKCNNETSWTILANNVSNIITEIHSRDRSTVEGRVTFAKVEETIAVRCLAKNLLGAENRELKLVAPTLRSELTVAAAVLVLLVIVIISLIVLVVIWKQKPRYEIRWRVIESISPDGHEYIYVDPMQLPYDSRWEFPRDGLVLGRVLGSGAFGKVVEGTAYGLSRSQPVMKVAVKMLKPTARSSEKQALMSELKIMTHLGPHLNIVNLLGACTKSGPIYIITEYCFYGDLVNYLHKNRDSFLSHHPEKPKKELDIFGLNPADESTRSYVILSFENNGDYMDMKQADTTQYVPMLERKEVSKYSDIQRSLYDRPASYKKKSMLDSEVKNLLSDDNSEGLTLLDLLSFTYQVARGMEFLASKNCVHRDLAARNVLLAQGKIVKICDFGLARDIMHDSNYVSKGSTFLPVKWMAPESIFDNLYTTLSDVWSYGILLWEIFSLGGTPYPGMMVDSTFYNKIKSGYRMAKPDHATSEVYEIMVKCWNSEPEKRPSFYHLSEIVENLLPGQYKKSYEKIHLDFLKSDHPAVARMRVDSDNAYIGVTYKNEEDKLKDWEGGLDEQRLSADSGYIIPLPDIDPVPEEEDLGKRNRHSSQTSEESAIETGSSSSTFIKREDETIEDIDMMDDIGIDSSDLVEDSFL
For assay [5], the target named is T2, cAMP-dependent protein kinase catalytic subunit PRKX (Homo sapiens) (UniProt P51817).
T2 sequence (whole entry): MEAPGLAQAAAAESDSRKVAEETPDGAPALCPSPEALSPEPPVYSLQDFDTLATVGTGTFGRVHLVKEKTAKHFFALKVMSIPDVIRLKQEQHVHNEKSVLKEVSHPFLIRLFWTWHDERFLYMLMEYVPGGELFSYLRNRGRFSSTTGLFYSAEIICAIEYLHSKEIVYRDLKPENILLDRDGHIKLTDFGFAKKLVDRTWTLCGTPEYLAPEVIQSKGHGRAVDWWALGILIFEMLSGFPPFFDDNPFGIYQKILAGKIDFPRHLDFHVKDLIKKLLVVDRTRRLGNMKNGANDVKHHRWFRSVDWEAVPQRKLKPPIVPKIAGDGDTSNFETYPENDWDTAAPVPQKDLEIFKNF
Description: Selectivity interaction (Kinase panel (Invitrogen)) EUB0000639a PRKX. The following applies: at 200 nM.

Assay [6] deals with Ribosomal protein S6 kinase alpha-6 (Homo sapiens, UniProt Q9UK32). Description: Selectivity interaction (Kinase panel (Invitrogen)) EUB0000639a RPS6KA6. As to conditions: at 200 nM.
Ribosomal protein S6 kinase alpha-6, sequence (Q9UK32 whole entry): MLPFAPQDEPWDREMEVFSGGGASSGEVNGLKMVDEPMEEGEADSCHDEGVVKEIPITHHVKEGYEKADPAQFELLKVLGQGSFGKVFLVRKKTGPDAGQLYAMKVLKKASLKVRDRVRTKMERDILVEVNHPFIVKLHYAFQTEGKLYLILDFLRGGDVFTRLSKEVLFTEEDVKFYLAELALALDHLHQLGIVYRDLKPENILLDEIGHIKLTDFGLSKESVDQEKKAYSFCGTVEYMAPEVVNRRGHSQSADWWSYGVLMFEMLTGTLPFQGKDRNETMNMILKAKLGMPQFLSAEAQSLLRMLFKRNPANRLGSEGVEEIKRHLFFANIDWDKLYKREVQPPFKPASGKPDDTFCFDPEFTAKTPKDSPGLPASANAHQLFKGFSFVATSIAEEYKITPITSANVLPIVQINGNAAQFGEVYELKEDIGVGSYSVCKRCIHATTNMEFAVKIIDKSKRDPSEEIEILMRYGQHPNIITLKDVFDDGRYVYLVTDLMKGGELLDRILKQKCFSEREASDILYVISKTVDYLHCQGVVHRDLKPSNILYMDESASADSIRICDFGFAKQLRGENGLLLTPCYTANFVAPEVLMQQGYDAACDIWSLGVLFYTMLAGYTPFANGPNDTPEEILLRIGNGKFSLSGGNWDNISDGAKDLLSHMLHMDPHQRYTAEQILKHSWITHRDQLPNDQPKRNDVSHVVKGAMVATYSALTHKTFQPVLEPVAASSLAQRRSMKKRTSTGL
Assay [7] concerns the target T3, Mitogen-activated protein kinase kinase kinase 3 (Homo sapiens) (UniProt Q99759).
T3 sequence (whole entry): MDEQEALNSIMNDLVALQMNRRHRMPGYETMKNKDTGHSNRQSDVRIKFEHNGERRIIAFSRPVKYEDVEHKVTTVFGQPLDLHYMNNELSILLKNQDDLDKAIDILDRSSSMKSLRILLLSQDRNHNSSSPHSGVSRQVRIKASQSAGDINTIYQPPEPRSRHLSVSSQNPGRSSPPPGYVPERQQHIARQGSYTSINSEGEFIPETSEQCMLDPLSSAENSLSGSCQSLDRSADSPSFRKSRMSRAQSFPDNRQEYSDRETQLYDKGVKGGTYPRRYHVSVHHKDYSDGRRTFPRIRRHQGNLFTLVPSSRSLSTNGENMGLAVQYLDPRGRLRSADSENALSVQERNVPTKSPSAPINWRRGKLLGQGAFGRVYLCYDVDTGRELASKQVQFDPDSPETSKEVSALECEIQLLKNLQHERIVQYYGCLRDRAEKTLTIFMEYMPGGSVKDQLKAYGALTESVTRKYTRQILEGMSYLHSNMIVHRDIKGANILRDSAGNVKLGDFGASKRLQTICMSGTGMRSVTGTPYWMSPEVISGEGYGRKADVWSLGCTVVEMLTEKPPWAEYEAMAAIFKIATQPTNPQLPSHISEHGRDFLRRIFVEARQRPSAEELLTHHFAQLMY
Nature of the assay: Selectivity interaction (KinomeScan (DiscoverX)) EUB0001619a MAP3K3. As to conditions: at 1 µM.

The target in assay [8] is T4, Mitogen-activated protein kinase kinase kinase kinase 2 (Homo sapiens) (UniProt Q12851).
T4 sequence (whole entry): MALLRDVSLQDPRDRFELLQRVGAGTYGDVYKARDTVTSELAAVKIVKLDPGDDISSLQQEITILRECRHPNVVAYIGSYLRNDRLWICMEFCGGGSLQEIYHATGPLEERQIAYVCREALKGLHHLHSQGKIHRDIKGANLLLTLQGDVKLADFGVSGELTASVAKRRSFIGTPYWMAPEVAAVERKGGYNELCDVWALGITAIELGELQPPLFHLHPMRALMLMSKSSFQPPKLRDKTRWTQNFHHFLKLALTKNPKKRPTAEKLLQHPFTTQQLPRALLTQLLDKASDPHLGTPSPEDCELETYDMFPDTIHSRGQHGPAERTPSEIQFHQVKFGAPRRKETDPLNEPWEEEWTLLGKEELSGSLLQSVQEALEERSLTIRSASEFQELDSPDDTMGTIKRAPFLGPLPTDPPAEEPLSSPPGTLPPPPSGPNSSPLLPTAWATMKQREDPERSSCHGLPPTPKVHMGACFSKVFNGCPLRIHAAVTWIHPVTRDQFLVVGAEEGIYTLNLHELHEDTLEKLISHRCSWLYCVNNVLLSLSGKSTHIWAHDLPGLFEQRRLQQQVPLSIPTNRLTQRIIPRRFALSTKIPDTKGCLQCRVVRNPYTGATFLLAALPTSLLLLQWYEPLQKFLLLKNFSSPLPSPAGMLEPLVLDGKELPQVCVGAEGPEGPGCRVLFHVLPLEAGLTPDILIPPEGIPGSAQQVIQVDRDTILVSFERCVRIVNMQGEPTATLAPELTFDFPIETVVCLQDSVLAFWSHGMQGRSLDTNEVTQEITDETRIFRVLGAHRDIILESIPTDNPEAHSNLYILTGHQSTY
Description: Selectivity interaction (ActivX KiNativ screen (ex vivo kinase selectivity in human PBMCs)) EUB0001619a MAP4K2. The assay is classed as cell-based. The following applies: PBMC, at 1 µM.

Serine/threonine-protein kinase PAK 6 (Homo sapiens), sequence (Q9NQU5 whole entry, looked up): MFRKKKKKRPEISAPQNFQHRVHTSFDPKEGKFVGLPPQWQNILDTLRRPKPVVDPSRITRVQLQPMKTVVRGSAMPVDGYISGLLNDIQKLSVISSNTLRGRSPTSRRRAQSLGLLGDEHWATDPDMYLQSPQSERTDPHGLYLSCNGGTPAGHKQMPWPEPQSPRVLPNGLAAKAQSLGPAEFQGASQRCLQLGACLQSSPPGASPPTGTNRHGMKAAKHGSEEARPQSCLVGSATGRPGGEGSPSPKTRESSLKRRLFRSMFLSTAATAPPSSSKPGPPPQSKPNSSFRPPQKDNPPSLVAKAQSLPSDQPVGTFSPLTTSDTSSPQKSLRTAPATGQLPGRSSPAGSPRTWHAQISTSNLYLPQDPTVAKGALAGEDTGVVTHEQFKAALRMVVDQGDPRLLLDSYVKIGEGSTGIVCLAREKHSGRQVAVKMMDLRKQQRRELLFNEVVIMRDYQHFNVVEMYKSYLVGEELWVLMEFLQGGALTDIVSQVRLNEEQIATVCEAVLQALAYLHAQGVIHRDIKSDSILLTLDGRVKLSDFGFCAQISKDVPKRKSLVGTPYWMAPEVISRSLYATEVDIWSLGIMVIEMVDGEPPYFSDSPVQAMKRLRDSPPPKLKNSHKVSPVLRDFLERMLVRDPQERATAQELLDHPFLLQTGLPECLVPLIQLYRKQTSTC

Consider `C=CC(=O)Nc1cccc(C(=O)Nc2ccc(Nc3cc(-c4[nH]c(SC)nc4C)ccn3)cc2)c1`, for which the % of control was found to be 90% in assay [1], 99% in assay [2] (at 1 µM) and 87% in assay [2] (at 5 µM).

With `COc1cc(Nc2nc(C)cc(-c3cnn4nc(OC)ccc34)n2)cc(C(F)(F)F)c1`, in assay [3], the % of control was found to be 100%.

Take `CNC(=O)Nc1ccc(-c2nc(N3CC4CCC(C3)O4)c3cnn(C4CCC5(CC4)OCCO5)c3n2)cc1`: the % of control in assay [4] stood at 80%.

For `CC[C@@H]1[C@H](F)C(=O)N[C@@H]1COc1nccc2cc(C(N)=O)c(OC)cc12` [ZIMLOVISERTIB], the % of inhibition is 11.1% in assay [5] and -1.29% in assay [6].

`N#Cc1cccc(-c2c[nH]c3ncnc(N4CCOCC4)c23)c1` gave a % of control in assay [7] of 8.2%. Also, in assay [8], the % of inhibition was 31%.
